Assay results taken from publication PMC7581722, “Tolerogenic Immunomodulation by PEGylated Antigenic Peptides” (Frontiers in Immunology, 2020).

Tests used:
OVA-TCR+ CD4+ T cells [1] = test: Analysis of bioavailability: vaccination 3 days before transfer of CFSE-labeled OVA-specific CD4+ cells; set-up: species or system BALB/c mice; conditions: mouse, in vivo, iv
Method: To test for the presence of bioactive material in the organism after an extended period of time (bioavailability), recipients were treated with pOVA or equimolar amounts of PEGylated peptides 3 days before transfer of CFSE-labeled OVA-specific CD4^+ cells. Proliferation was assessed 6 days after CD4^+ T cell transfer by dilution of CFSE intensity using flow cytometry.
We next addressed the question whether PEGylation leads to an extended half-life (bioavailability) of the antigenic peptide in the organism and whether size and structure of the PEG molecule matter. For this, we tested the degree of proliferation after vaccination with a single i.v. injection of pOVA or conjugates at 3 days prior to transfer of OVA-specific T cells ( Figure 3A ). Six days after cell transfer, splenocytes were isolated and proliferation of OVA-TCR^+ CD4^+ T cells was analyzed according to CFSE content.
Figure 3 Conjugation of pOVA to the macromolecular carrier PEG extends peptide bioavailability. (A) Set-up for analysis of the bioavailability. (B) OVA-specific CD4^+ CFSE-labeled T cells were transferred into BALB/c mice three days after i.v. peptide vaccination with unconjugated pOVA or equimolar amounts of pOVA-PEG conjugates. After 6 days proliferation was assessed by flow cytometry. Cells from spleen and pLN were gated on OVA-TCR^+ CD4^+ T cells. […]

[2] = tested on: Foxp3+ Tregs among OVA-TCR+ CD4+ cells; test: Adoptive transfer of Treg-depleted CD4+ cells: de novo induction of Foxp3+ Tregs; assay type: in vivo, BALB/c mice; conditions: 5 µg i.v. or equimolar, 6 days; spleen, pLN, mLN, livLN; n = 3-7
Method: To investigate whether Tregs are expanded or induced de novo, purified CFSE-labeled CD4^+ CD25^- CD103^- T cells from DO11.10 mice were adoptively transferred i.v. into BALB/c mice. After 24 h, mice were treated by a single i.v. injection of PBS (control), unconjugated pOVA at a dose of 5 µg per mouse or equimolar amounts of PEGylated pOVA. On day 7, different lymphatic organs were isolated and OVA-specific CD4^+ T cells were identified by an anti-KJ1.26 antibody.
To investigate whether the increase of Treg frequency following pOVA-PEG20 treatment is due to de novo induction or to expansion of pre-existing Tregs, we transferred Treg-depleted OVA-specific CD4^+ T cells prior to vaccination with pOVA or pOVA-PEG20. […] The frequency of Foxp3^+ Tregs reached similar levels following pOVA and pOVA-PEG20 administration in both spleen and pLN, whereas pOVA-PEG20 increased the Treg frequency in mLN (trend) and the livLN (significant) compared to pOVA.
Figure 5 Administration of pOVA-PEG20 leads to de novo induction of Foxp3^+ Tregs. Treg-depleted CD4^+ T cells from DO11.10 mice were transferred into BALB/c mice 24 h prior to treatment with PBS (control), 5 µg of pOVA or equimolar amounts of pOVA-PEG20. Six days post peptide vaccination, spleen, pLN, mLN and livLN were isolated and Foxp3 expression was analyzed using flow cytometry. […]

OVA-TCR+ CD4+ cells = test: Adoptive transfer with additional LPS (inflammatory conditions); assay type: in vivo, BALB/c mice; conditions: 5 µg i.v. or equimolar + 50 µg LPS, 6 days
Method: (§1) On day 0, 5 × 10^6 CFSE-labeled CD4^+ cells from DO11.10 were adoptively transferred intravenously (i.v.) into syngeneic BALB/c mice. After 24 hours, mice were treated by a single i.v. injection of PBS (control), unconjugated pOVA or equimolar amounts of PEG-conjugated pOVA as indicated. In some experiments, mice were also treated with unconjugated pOVA + 50 µg of lipopolysaccharide (LPS) or pOVA-PEG + 50 µg of LPS. On day 7, splenocytes were isolated, and OVA-TCR^+ CD4^+ T cells were identified by an anti-KJ1.26 antibody, recognizing the OVA-specific TCR on transferred DO11.10 cells.
To investigate the impact of inflammatory conditions, we analyzed the effect of lipopolysaccharide (LPS) application on the response of transferred unmanipulated OVA-TCR^+ CD4^+ cells.
24 h after adoptive transfer of OVA-specific CD4^+ T cells, recipients received i.v. PBS (control), 5 µg of pOVA or equimolar amounts of pOVA-PEG conjugates with or without additional LPS. After 6 days, splenocytes were isolated and Foxp3 expression as well as TNF production was assessed by flow cytometry. (A) % TNF^+ cells gated on OVA-specific CD4^+ cells, mean ± SD of data from three independent experiments. (B) % KJ1.26^+ (OVA-specific) splenocytes among total CD4^+ population; mean ± SD of pooled data from three independent experiments. […]

[3] = tested on: Foxp3+ regulatory T cells among OVA-TCR+ CD4+ T cells; test: Adoptive transfer: Foxp3 expression of OVA-TCR+ CD4+ splenocytes after vaccination; assay type: in vivo, BALB/c mice
Method: Cell fixation, permeabilization, and intracellular Foxp3 staining were performed using the eFluor450 anti-mouse Foxp3 (eBioscience) staining set according to manufacturer’s instructions.
On day 0, 5 × 10^6 CFSE-labeled CD4^+ cells from DO11.10 were adoptively transferred intravenously (i.v.) into syngeneic BALB/c mice. After 24 hours, mice were treated by a single i.v. injection of PBS (control), unconjugated pOVA or equimolar amounts of PEG-conjugated pOVA as indicated. […] On day 7, splenocytes were isolated, and OVA-TCR^+ CD4^+ T cells were identified by an anti-KJ1.26 antibody, recognizing the OVA-specific TCR on transferred DO11.10 cells.
To assess the immunomodulatory effect of administration of different types of PEGylated pOVA, we analyzed the expression of Foxp3, the master transcription factor of Tregs and the cytokine profile of antigen-specific T cells upon vaccination.
CFSE-labeled CD4^+ cells from DO11.10 mice were transferred into BALB/c mice. After 24 h, mice received either PBS (control), indicated doses of pOVA or equimolar amounts of PEGylated peptides. After 6 days, Foxp3 expression was assessed using flow cytometry. Spleen cells were gated on OVA-TCR^+ CD4^+ T cells. (A) Representative FACS dot plots of Foxp3 expression following tolerization with pOVA or pOVA-PEG conjugates at a dose of 5 µg (based on peptide amount). (B) Dose response curve in vivo. […]

[4] = tested on: TNF-producing OVA-TCR+ CD4+ T cells; assay type: in vivo
OVA-specific Th1 cells = test: Adoptive transfer of in vitro generated antigen-specific Th1 cells; assay type: in vivo; conditions: 5 µg i.v. or equimolar, 24 h after Th1 transfer, CFSE, n = 6
Method: CD4^+ T cells were isolated from DO11.10 mice via MACS-sorting as above and co-cultured 1:3 with APCs (CD4^- CD90^-) (final concentration: 2 x 10^6 cells/ml). Cells were incubated with 1 µg/ml of pOVA, IFN-γ (20 ng/ml) (R&D Systems, McKinley, USA), IL12 (5 ng/ml) (R&D), and anti-IL4-antibody (11B11, produced in house) (5 µg/ml). After 6 days, cells were harvested, and IFN-γ expression was assessed via flow cytometry.
5 × 10^6 purified polarized CFSE-labeled Th1 cells from DO11.10 mice were adoptively transferred i.v. into BALB/c mice. After 24 h, mice were treated by a single i.v. injection of PBS (control), unconjugated pOVA at a dose of 5 µg per mouse or equimolar amounts of PEGylated pOVA. On day 5, splenocytes were isolated, and OVA-specific Th1 cells were identified by an anti-KJ1.26 antibody.
To analyze these questions, in vitro generated OVA-specific Th1 effector cells ( Supplementary Figure 5 ) were transferred into BALB/c mice prior to peptide vaccination. Proliferation and expression of IFN-γ and Foxp3 were assessed on day 5.
Figure 9 pOVA-PEG20 vaccination in presence of pre-existing T effector cells. […] After four days, splenocytes were re-isolated and proliferation, IFN-γ and TNF production as well as Foxp3 expression was assessed using flow cytometry. […] (E, F) Absolute number of antigen-specific IFNγ or Foxp3^+ cells expressed as % of total CD4^+. […]

[5] = tested on: Th1-driven DTH footpad swelling; test: Delayed-type hypersensitivity (DTH) model, footpad swelling; assay type: in vivo, BALB/c mice; conditions: 5 µg i.v. or equimolar; Th1 transfer day 7; footpad challenge pOVA/IFA; 8 days; n = 15
Method: pOVA-specific CD4^+ cells were adoptively transferred into BALB/c mice, which were treated i.v. with PBS (control), 5 μg of pOVA or equimolar amounts of pOVA-PEG20 24 h later (tolerization). To induce the effector phase, in vitro generated pOVA-specific Th1 cells were transferred into the recipients on day 7. After 24 h, pOVA in IFA or PBS/IFA were injected into the left or right hind footpad, respectively. Footpad swelling was monitored for 8 consecutive days and expressed as Δ footpad thickness.
To investigate whether pOVA-PEG20 is able to prevent the development of an inflammatory reaction in vivo, we used a DTH model based on the transfer of pre-formed Th1 cells, intra-footpad challenge with pOVA and measurement of footpad swelling for 8 days. […] As discussed below, a clearer superiority of PEGylated peptide over native peptide in tolerance induction was found in a more physiological EAE-model studied in parallel ([35]).
OVA-specific CD4^+ cells were adoptively transferred into BALB/c mice, which were treated i.v. with PBS (control), 5 μg of pOVA or equimolar amounts of pOVA-PEG20 24 h later. On day 7, in vitro generated OVA-specific Th1 cells were transferred into the recipients. […] The difference in footpad thickness after challenge was monitored for eight consecutive days. […]

OVA-TCR+ CD4+ T cells [6] = test: Frequency of OVA-TCR+ CD4+ cells among total CD4+ splenocytes (deletion); assay type: in vivo, BALB/c mice; conditions: 5 µg i.v. or equimolar, day 6; compared to PBS (PEG20 also to pOVA); n = 5-11
Method: as §1
Besides Treg expansion/induction and anergy, deletion of antigen-specific T effector cells by activation-induced cell death also dampens the immune response. […] Thus, vaccination with this conjugate is more efficient in triggering activation-induced death compared to native peptide or pOVA-PEG-tetramer vaccination where some death might outbalance induced proliferation.
Figure 8 Administration of pOVA-PEG20 reduces the frequency of OVA-TCR^+ CD4^+ T cells among total CD4^+ splenocytes. OVA-specific CD4^+ cells were transferred into BALB/c mice. After 24 h, mice received i.v. PBS (control), 5 µg of pOVA or equimolar amounts of pOVA-PEG conjugates. After 6 days, the frequency of OVA-TCR^+ CD4^+ cells among total CD4^+ T cells was assessed using flow cytometry. […]

Sequence: ISQAVHAAHAEINEAGR [pOVA]
- T cell proliferation when vaccinated 3 days prior to T cell transfer (bioavailability) (OVA-TCR+ CD4+ T cells [1]): Little T cell proliferation
- De novo induction of Foxp3+ Tregs from Treg-depleted CD4+ cells [2]: able to induce Foxp3^+ Tregs in all organs analyzed
- Increase in Foxp3+ cells upon vaccination in presence of LPS (OVA-TCR+ CD4+ cells): completely suppressed
- Foxp3+ among OVA-TCR+ CD4+ splenocytes, representative FACS dot plot (Fig. 4A gate number) ([3]; 5 µg i.v. (based on peptide amount), 6 days after treatment, single representative plot): 24.7%
- Frequency of splenic OVA-specific Foxp3+ regulatory T cells (in words) ([3]; 5 µg i.v. or equimolar, pOVA, PEG40, tetramer compared to PBS, PEG20 compared to pOVA): significant increase
- Mean ratio % TNF+/% Foxp3+ cells (effector cell/Treg ratio) ([4]; 5 µg i.v. or equimolar, 6 days, spleen, gated on OVA-TCR+ CD4+ cells, n = 5-8): 2.23
- IL-10 staining of OVA-specific cells after restimulation, representative plot gate number (Suppl. Fig. 3) ([4]; 5 µg in vivo (based on peptide amount), day 7, lower pair of plots): 0.58
- Proliferative response of transferred Th1 cells (OVA-specific Th1 cells): moderate proliferative response
- Tolerance in Th1-driven DTH model (Δ footpad thickness) [5]: partial tolerance
- Frequency of OVA-specific (OVA-TCR+ CD4+) cells among host CD4+ splenocytes (OVA-TCR+ CD4+ T cells [6]): not reducing
